Where two headings read alike, the source gives them in different places.
Tests used:
[1] = tested on: Male, Wistar rats; assay: Schedule-induced polydipsia; assay type: in vivo, rat; conditions: for Effect on excessive drinking / amount of water consumed / Effect on number of responses emitted (lever pressing for food): acute dosing; for Effect of antagonist on the decrease in excessive water consumption produced by CPD 1: CPD 1 5.6 mg/kg
From the text: Rats were used in these experiments as they have been utilized for such studies in the past with great success in generating significant polydipsia ([16]). Male, Wistar rats were singly housed, and maintained at approximately 85% of their free-feeding weights with free access to water. Twelve adult male, Wistar rats (Harlan Industries, Indianapolis, IN, USA) were used. They were allowed to acclimate to our vivarium for at least 3 days prior to testing. They were 2 months old at the start of the experiments that lasted approximately 6–8 months and were without explicit experimental experience prior to this study. The rats were singly housed, and maintained at approximately 86–91% of their free-feeding weights with post session supplemental feeding of Lab Diet #5001 for rodents (PMI Nutrition International Inc., St. Louis, MO, USA). Body weights were corrected for the normal growth curve of Wistar rats such that actual body weight of each rat increased over the experimental time frame. Water was available continuously in the individual home cages. Rats were inspected daily 7 days/week by experimenters and veterinary staff.
The experiments were conducted using operant behavior test chambers ENV-007 (Med Associates Inc., Georgia, VT, USA), 30.5 cm × 24.1 cm × 29.2 cm. The test chambers were contained within light and sound attenuating shells. A food trough was mounted 2 cm off the grid floor on the centerline. Two response levers were centered 8 cm off the centerline and 7 cm off the grid floor. Three lights were located above each response lever at 15 cm off the grid floor. All events were controlled and lever-press data were recorded by a Compaq computer running MED-PC Version IV (Med Associates Inc., Georgia, VT, USA). The water bottle located within each chamber was weighed before and after experimental sessions.
Experimental sessions lasted 90 min. Test compounds or drug vehicle were administered on Tuesdays and Fridays, given the stability of performance (within 15% variation of the individual animal). Non-injection, control performances were on Thursdays. […] Dose-effect curves and drug interaction data were created by repeated testing in groups of five to eight rats. Test compounds were administered as described in figure legends. The effects of the compound are expressed as a percent of control for each individual animal. Results were analyzed by ANOVA followed by Dunnett’s multiple comparison (p < 0.05).
Thus, in keeping with the guidelines of animal care and use followed here, we utilized the minimum number of animals required for signal detection.

[2] = tested on: Male, NIH Swiss mice; conditions: mouse, in vivo, 60 min
[3] = tested on: Male, NIH Swiss mice; assay: Nestlet-shredding; conditions: 8/dose group
[4] = tested on: Male, NIH Swiss mice; conditions: 12/dose group
[5] = tested on: Male, NIH Swiss mice; assay: Rotarod performance; assay type: in vivo, mouse
From the text: Mice were not pretrained on this task.

[6] = tested on: Male, Wistar rats; assay: Isoproterenol-induced drinking; assay type: in vivo, rat; conditions: (±)-isoproterenol 30 μg/kg, s.c.
Method: Male, Wistar rats (different from those rats used in the schedule-induced polydipsia studies) were used. They were 331 ± 11 g at the initiation of this study. Compound 1 (5.6 mg/kg, s.c.) was evaluated for its ability to reduce drinking. (±)-isoproterenol (30 μg/kg, s.c.) was given to induce drinking (n = 5–20 rat/group). Ten minutes after vehicle or (±)-isoproterenol injection, rats were given either vehicle or Compound 1 and a 60 min session began in which the rats in individual housing cages were given access to water 20 min after the second injection. The weight of the water bottle before and after the 60 min period was measured to the nearest 0.1 g. After the experiment, the animals were returned to their living cages with continuous access to food and water.

[7] = tested on: Male, NIH Swiss mice; assay: Locomotor activity; conditions: 12/dose group
[8] = molecular target: T1, h5-HT2C (Homo sapiens, UniProt P28335); assay: GTP-γ-[35S] functional assay (SPA), AV12 cells; assay type: biochemical; conditions: GTPgs functional assay, human recombinant cell line
T1 construct: expressed in transfected cells; host or cells: AV12 cells
T1 sequence (P28335 33-458): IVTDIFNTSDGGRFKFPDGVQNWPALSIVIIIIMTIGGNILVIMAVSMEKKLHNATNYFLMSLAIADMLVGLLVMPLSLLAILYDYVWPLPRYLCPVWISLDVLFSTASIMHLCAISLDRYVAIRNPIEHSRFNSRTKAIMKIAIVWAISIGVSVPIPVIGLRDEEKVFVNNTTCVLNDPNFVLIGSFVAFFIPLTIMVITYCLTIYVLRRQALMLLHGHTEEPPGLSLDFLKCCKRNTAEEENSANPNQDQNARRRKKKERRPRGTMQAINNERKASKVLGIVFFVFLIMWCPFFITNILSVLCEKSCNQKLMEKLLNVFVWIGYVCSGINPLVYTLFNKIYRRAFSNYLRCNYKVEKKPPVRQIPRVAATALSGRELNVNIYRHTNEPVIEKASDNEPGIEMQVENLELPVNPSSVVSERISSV
From the text: (§1) 5-HT2 receptors are functionally coupled to specific G-proteins. Agonist activation of 5-HT2 G-protein coupled receptors results in the release of GDP from alpha-subunit (G alpha q or G alpha i) of the G-protein and the subsequent binding of GTP. The binding of the stable analog GTP-g-[^35S] is an indicator of receptor activation. Human cloned 5-HT2A, −2B, and −2C receptors were expressed in AV12 cells. GTP-g-[^35S] nucleotide exchange scintillation proximity assay (SPA) was used to measure binding as previously described ([14]).

[9] = molecular target: T2, h5-HT2B (Homo sapiens, UniProt P41595); assay: GTP-γ-[35S] functional assay (SPA), AV12 cells; assay type: biochemical; conditions: GTPgs functional assay, human recombinant cell line
T2 construct: expressed in transfected cells; host or cells: AV12 cells
T2 sequence (P41595 whole entry): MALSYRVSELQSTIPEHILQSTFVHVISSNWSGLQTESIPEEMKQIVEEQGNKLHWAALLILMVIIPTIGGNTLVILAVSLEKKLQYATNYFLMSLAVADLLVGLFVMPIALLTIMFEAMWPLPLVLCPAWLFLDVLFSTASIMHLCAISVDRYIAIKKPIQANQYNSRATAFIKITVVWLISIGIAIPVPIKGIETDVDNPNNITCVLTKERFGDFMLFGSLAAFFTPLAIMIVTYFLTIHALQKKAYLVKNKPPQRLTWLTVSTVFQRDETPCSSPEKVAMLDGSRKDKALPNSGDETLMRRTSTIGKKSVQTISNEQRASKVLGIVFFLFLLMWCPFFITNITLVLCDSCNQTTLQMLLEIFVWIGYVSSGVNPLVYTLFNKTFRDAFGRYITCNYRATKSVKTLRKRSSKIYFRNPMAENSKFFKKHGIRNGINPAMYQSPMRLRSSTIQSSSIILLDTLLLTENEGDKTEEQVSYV
From the text: as §1

[10] = molecular target: T3, h5-HT2A (Homo sapiens, UniProt P28223); assay: GTP-γ-[35S] functional assay (SPA), AV12 cells; assay type: biochemical; conditions: GTPgs functional assay, human recombinant cell line
T3 construct: expressed in transfected cells; host or cells: AV12 cells
T3 sequence (P28223 whole entry): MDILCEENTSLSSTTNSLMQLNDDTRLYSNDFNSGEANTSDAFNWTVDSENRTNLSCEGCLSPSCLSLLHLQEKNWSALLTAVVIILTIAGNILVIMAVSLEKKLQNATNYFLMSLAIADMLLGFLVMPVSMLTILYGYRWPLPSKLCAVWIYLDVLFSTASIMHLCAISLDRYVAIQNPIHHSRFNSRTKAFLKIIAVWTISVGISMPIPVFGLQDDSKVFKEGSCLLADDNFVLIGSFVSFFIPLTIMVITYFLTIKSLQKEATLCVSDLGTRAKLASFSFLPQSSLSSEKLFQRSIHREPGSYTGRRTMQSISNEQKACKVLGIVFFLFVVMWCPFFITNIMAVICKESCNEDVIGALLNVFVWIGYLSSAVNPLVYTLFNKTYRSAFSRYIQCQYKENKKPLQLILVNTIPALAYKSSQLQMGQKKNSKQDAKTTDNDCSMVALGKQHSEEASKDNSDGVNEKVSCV
From the text: as §1

[11] = fluoxetine 30 mg/kg with SB-242084 3 mg/kg

CN(C)CCCN1c2ccccc2CCc2ccc(Cl)cc21 [Clomipramine, clomipramine]
Effect on excessive drinking / amount of water consumed ([1]; given alone): decreased | Effect on number of responses emitted (lever pressing for food) ([1]; given alone): decreased

C[C@H](N)Cc1ccccc1 [D-amphetamine]
Effect on excessive drinking / amount of water consumed ([1]; given alone): decreased | Effect on number of responses emitted (lever pressing for food) ([1]; given alone): increased

CNCCC(Oc1ccc(C(F)(F)F)cc1)c1ccccc1 (stereo not shown) [Fluoxetine, fluoxetine]
Locomotor activity, minimal effective dose [2]: >10 milligrams per kilogram | Nestlet-shredding, minimal effective dose [3]: 10 milligrams per kilogram | Responses (Rsp) in percent of controls ([1]; 10 mg/kg given alone): 102.3% of controls | Water consumed (H2O) in percent of controls ([1]; 10 mg/kg given alone): 66.7% of controls | Responses (Rsp) in percent of controls ([1]; 30 mg/kg, i.p., given alone): 6% of controls | Water consumed (H2O) in percent of controls ([1]; 30 mg/kg, i.p., given alone): 8% of controls | Dose at which statistically significant reduction of excessive drinking was detected ([1]; Dunnett p < 0.05): 20 mg/kg | Dose at which statistically significant reduction of food-maintained responding was detected ([1]; Dunnett p < 0.05): 20 mg/kg | Water consumed (H2O) in percent of controls ([1]; fluoxetine 10 mg/kg with SB-242084 3 mg/kg): 99.2% of controls | Responses (Rsp) in percent of controls [1, 11]: 92.7% of controls | Water consumed (H2O) in percent of controls [1, 11]: 101.4% of controls | Marble-burying, minimal effective dose [4]: 10 milligrams per kilogram | Rotarod, minimal effective dose ([5]; male, NIH Swiss, mouse, in vivo, 2 min): >30 milligrams per kilogram

CC(C)NCC(O)c1ccc(O)c(O)c1 (stereo not shown) [Isoproterenol, isoproterenol, reference compound]
Increase of water consumption relative to vehicle-treated rats [6]: 432%

COc1cccc([C@H](O)C2CCN(CCc3ccc(F)cc3)CC2)c1OC [MDL100907, (R)-(2,3-dimethoxyphenyl)-[1-[2-(4-fluorophenyl)ethyl]-4-piperidyl]methanol]
Effect of antagonist on the decrease in excessive water consumption produced by CPD 1 [1]: did not significantly alter

CCCC(C)C1(CC)C(=O)NC(=O)NC1=O (stereo not shown) [Pentobarbital, pentobarbital]
Nestlet-shredding, minimal effective dose [3]: 10 milligrams per kilogram | Marble-burying, minimal effective dose [4]: >17 milligrams per kilogram | Rotarod, minimal effective dose ([5]; mice, 12/dose group): 5.6 milligrams per kilogram

C[C@H](N)Cn1ccc2cc(F)c(Cl)cc21 [Ro 60-0175]
Nestlet-shredding, minimal effective dose [3]: less than 1 milligrams per kilogram | Nestlet-shredding, minimal effective dose ([3]; listed as RO 60-0175): <1 milligrams per kilogram | Effect on excessive drinking / amount of water consumed ([1]; given alone): significantly decreased | Effect on number of responses emitted (lever pressing for food) ([1]; given alone): significantly decreased | Marble-burying, minimal effective dose [4]: 0.1 milligrams per kilogram | Locomotor activity, minimal effective dose [7]: greater than 10 milligrams per kilogram | Locomotor activity, minimal effective dose ([7]; listed as RO 60-0175): >1 milligrams per kilogram | EC50 [8]: 5.1 ± 1 nM | Emax [8]: 104 ± 1% | EC50 [9]: 57 ± 1 nM | Emax [9]: 58 ± 1% | EC50 [10]: 130 ± 1 nM | Emax [10]: 59 ± 1% | Rotarod, minimal effective dose ([5]; mice, 12/dose group): greater than 1 milligrams per kilogram | Rotarod, minimal effective dose ([5]; mice, 12/dose group, listed as RO 60-0175): >10 milligrams per kilogram

Cc1cc2c(cc1Cl)N(C(=O)Nc1ccc(Oc3cccnc3C)nc1)CC2 [SB242084, 6-chloro-5-methyl-N-{6-[(2-methylpyridin-3-yl)oxy]pyridin-3-yl}indoline-1-carboxamide]
Responses in percent of control ([1]; 3 mg/kg given alone): 191.2% of controls | Water consumed (H2O) in percent of control ([1]; 3 mg/kg given alone): 112.1% of controls | Effect of antagonist on the decrease in excessive water consumption produced by CPD 1 [1]: prevented | Effect of antagonist on the effects of D-amphetamine ([1]; SB242084 3 mg/kg, D-amphetamine 3 mg/kg): did not alter | Effect of antagonist on the decreases in water consumption and response output produced by fluoxetine ([1]; SB-242084 3 mg/kg, fluoxetine 30 mg/kg): significantly attenuated | Effect on excessive drinking / amount of water consumed ([1]; given alone): did not significantly affect | Effect on number of responses emitted (lever pressing for food) ([1]; given alone): increased

Clc1cccc(N2CCNCC2)c1 [mCPP, meta-chlorophenylpiperazine, reference compound]
Effect on excessive drinking / amount of water consumed ([1]; given alone): significantly decreased | Effect on number of responses emitted (lever pressing for food) ([1]; given alone): significantly decreased | Emax [8]: 99 ± 2% | Emax [9]: 84 ± 2% | Emax [10]: 88 ± 2%

From publication PMC5438973 (Frontiers in Psychiatry, 2017)
